# Activity calls are given as the source filed them. No cut-off for these calls is given here.
# Key:
# [1] = Reduction of hypoxia-induced VEGF mRNA expression in human Hep3B cells after 48 hrs by RT-PCR analysis; assay type: functional, cell-based; conditions: Hep 3B2
# Hep 3B2 [2] = experiment: Antimigratory activity in human Hep3B cells assessed as inhibition of VEGF-induced migration at 0.8 to 20 uM by real time cell analysis; assay type: functional, cell-based
# [3] = Reduction of hypoxia-induced VEGF expression in human Hep3B cells after 48 hrs by Western blotting analysis; assay type: functional, cell-based; conditions: Hep 3B2
# [4] = Cytotoxicity against human Hep3B cells at >20 uM after 12 hrs by MTT assay; assay type: cell-based; conditions: hep 3b2, 12 h
# [5] = Reduction of hypoxia-induced HIF-1 alpha expression in human Hep3B cells after 48 hrs by Western blotting analysis; assay type: functional, cell-based; conditions: Hep 3B2
# Hep 3B2 [6] = experiment: Antitumor activity against human Hep3B cells xenografted in iv dosed Balb/c nude mouse assessed as inhibition of tumor growth after 11 days; assay type: functional, organism-based
# Hep 3B2 [7] = experiment: Antiinvasive activity in human Hep3B cells assessed as inhibition of VEGF-induced invasion after 30 mins by transwell assay; assay type: functional, cell-based
# Hep 3B2 [8] = experiment: Antitumor activity against human Hep3B cells xenografted in Balb/c nude mouse assessed as reduction in microvessel density at 2.5 to 5 mg/kg, iv by immunohistochemical analysis; assay type: functional, organism-based
# [9] = Acute toxicity in Swiss mouse assessed as mortality rate at 200 mg/kg, iv after 14 days relative to control; assay type: organism-based; design: dose 200 mg/kg, route intravenous; conditions: in vivo
# Mus musculus [10] = experiment: Acute toxicity in Swiss mouse assessed as structural abnormality in kidney at 300 mg/kg, iv after 14 days by histological analysis relative to control; assay type: organism-based; design: dose 300 mg/kg, route intravenous; conditions: in vivo, 336 h
# Mus musculus [11] = experiment: Toxicity in Balb/c nude mouse xenografted with human Hep3B cells assessed as change in body weight at 2.5 to 5 mg/kg, iv; assay type: organism-based, Hep 3B2; design: dose 2.5-5 mg/kg, route intravenous; conditions: in vivo
# [12] = Acute toxicity in iv dosed Swiss mouse; assay type: organism-based; conditions: in vivo
# [13] = Acute toxicity in Swiss mouse assessed as mortality rate at 100 mg/kg, iv after 14 days relative to control; assay type: organism-based; design: dose 100 mg/kg, route intravenous; conditions: in vivo
# HUVEC [14] = experiment: Antimigratory activity in HUVEC assessed as inhibition of VEGF-induced migration at 0.8 to 20 uM by real time cell analysis; assay type: functional, cell-based; conditions: Homo sapiens
# HUVEC [15] = experiment: Antiangiogenic activity in HUVEC assessed as inhibition of VEGF-induced tube formation after 30 mins by matrigel assay; assay type: functional, cell-based; conditions: Homo sapiens
# [16] = Acute toxicity in Swiss mouse assessed as mortality rate at 300 mg/kg, iv after 14 days relative to control; assay type: organism-based; design: dose 300 mg/kg, route intravenous; conditions: in vivo
# HUVEC [17] = experiment: Cytotoxicity against HUVEC at >20 uM after 12 hrs by MTT assay; assay type: cell-based; conditions: human
# HUVEC [18] = experiment: Antiinvasive activity in HUVEC assessed as inhibition of VEGF-induced invasion after 30 mins by transwell assay; assay type: functional, cell-based; conditions: Homo sapiens
# Mus musculus [19] = experiment: Acute toxicity in Swiss mouse assessed as structural abnormality in lung at 300 mg/kg, iv after 14 days by histological analysis relative to control; assay type: organism-based; design: dose 300 mg/kg, route intravenous; conditions: in vivo, 336 h
# Hep 3B2 [20] = experiment: Antitumor activity against human Hep3B cells xenografted in Balb/c nude mouse assessed as reduction in MMP-2 expression at 2.5 to 5 mg/kg, iv by immunohistochemical analysis; assay type: functional, organism-based
# [21] = Reduction of hypoxia-induced HIF-1 beta expression in human Hep3B cells after 48 hrs by Western blotting analysis; assay type: functional, cell-based; conditions: Hep 3B2
# [22] = Reduction of hypoxia-induced HIF-1 beta expression in human Hep3B cells at 10 uM after 48 hrs by Western blotting analysis; assay type: functional, cell-based; conditions: Hep 3B2
# [23] = Reduction of hypoxia-induced HIF-1 alpha expression in human Hep3B cells at 10 uM after 48 hrs by Western blotting analysis; assay type: functional, cell-based; conditions: Hep 3B2
compound,measurement,setting,value
COc1ccc(/C=C/C(=O)c2ccc3c(c2O)C=CC(C)(C)O3)cc1O,Activity,[1],Dose-dependent effect
same,Activity,Hep 3B2 [2],Active
same,Activity,[3],Dose-dependent effect
same,Activity,[4],Non-toxic
same,Activity,[5],Dose-dependent effect
same,inhibition,Hep 3B2 [6],Dose-dependent effect
same,Activity,Hep 3B2 [7],Dose-dependent effect
same,Activity,Hep 3B2 [8],Active
same,mortality at 336 h,[9],0%
same,Activity,Mus musculus [10],Non-toxic
same,Activity,Mus musculus [11],Non-toxic
same,MTD,[12],22 mg/kg
same,mortality at 336 h,[13],0%
same,Activity,HUVEC [14],Active
same,inhibition,HUVEC [15],Dose-dependent effect
same,mortality at 336 h,[16],16.7%
same,Activity,HUVEC [17],Non-toxic
same,Activity,HUVEC [18],Dose-dependent effect
same,Activity,Mus musculus [19],Non-toxic
same,Activity,Hep 3B2 [20],Active
same,Activity,[21],Dose-dependent effect
CC[C@@]1(O)C(=O)OCc2c1cc1n(c2=O)Cc2cc3c(CN(C)C)c(O)ccc3nc2-1,Activity,[22],Active
same,Activity,[23],Active

# Source: ChEMBL document CHEMBL3351589, “Novel chalcone derivatives as hypoxia-inducible factor (HIF)-1 inhibitor: synthesis, anti-invasive and anti-angiogenic properties” (Eur J Med Chem, 2015)
